Source: PubChem BioAssay AID256 (DTP/NCI, 2004)
Where “and” joins values, the source holds several entries; their conditions need not be identical. Equal values may be shown once. Inconclusive results and toxic doses are left out. The calls were made as follows: active = survival T/C of 150% or more; inactive = T/C below 125% in these data.

Tested on: CD2F1 mice, L1210 leukemia ip, survival T/C
Assay: NCI In Vivo Anticancer Drug Screen. Data for tumor model L1210 Leukemia (intraperitoneal) in CD2F1 (CDF1) mice
Conditions: higher = longer survival
Procedure, shortened: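 Ratio T/C, where T is the treated-group value and C the vehicle-dosed control value, from mice implanted with a transplantable tumor.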

[1] = endpoint: mean survival time, dose: 50.0 mg/kg/injection, schedule: Q01DX009 (ip), vehicle: saline with Tween-80
[2] = endpoint: mean survival time, dose: 100.0 mg/kg/injection, schedule: Q01DX009 (ip), vehicle: saline with Tween-80
[3] = endpoint: mean survival time, dose: 200.0 mg/kg/injection, schedule: Q01DX009 (ip), vehicle: saline with Tween-80
[4] = endpoint: mean survival time, dose: 400.0 mg/kg/injection, schedule: Q01DX009 (ip), vehicle: saline with Tween-80
[5] = endpoint: mean survival time, dose: 100.0 mg/kg/injection, schedule: Q01DX001 (ip), vehicle: saline
[6] = endpoint: mean survival time, dose: 200.0 mg/kg/injection, schedule: Q01DX001 (ip), vehicle: saline
[7] = endpoint: mean survival time, dose: 400.0 mg/kg/injection, schedule: Q01DX001 (ip), vehicle: saline
[8] = endpoint: mean survival time, dose: 100.0 mg/kg/injection, schedule: Q04DX003 (ip), vehicle: saline with Tween-80
[9] = endpoint: mean survival time, dose: 100.0 mg/kg/injection, schedule: Q04DX002 (ip), vehicle: saline with Tween-80
[10] = endpoint: mean survival time, dose: 200.0 mg/kg/injection, schedule: Q04DX002 (ip), vehicle: saline with Tween-80
[11] = endpoint: mean survival time, dose: 50.0 mg/kg/injection, schedule: Q01DX009 (ip), vehicle: saline

Measured: T/C

NC(=O)c1ncn(C2CC3[O][Sn]([c]4ccccc4)([c]4ccccc4)[O]CC3O2)n1 (centres undefined)
inactive: endpoint: mean survival time, dose: 12.5 mg/kg/injection, schedule: Q01DX005 (ip), vehicle: distilled water + Tween-80 101 % of control | endpoint: mean survival time, dose: 25.0 mg/kg/injection, schedule: Q01DX005 (ip), vehicle: distilled water + Tween-80 97 % of control | endpoint: mean survival time, dose: 100.0 mg/kg/injection, schedule: Q01DX005 (ip), vehicle: distilled water + Tween-80 88 % of control | endpoint: mean survival time, dose: 200.0 mg/kg/injection, schedule: Q01DX005 (ip), vehicle: distilled water + Tween-80 95 % of control

O=c1oc(-c2ccc([N+](=O)[O-])cc2)nc2cc(Cl)ccc12
inactive: [1] 97 % of control | [2] 108 % of control | [3] 103 % of control

COC(=O)Nc1ccc(Cc2ccc(NC(=O)OC)cc2)cc1
inactive: [1] 121 % of control and 104 % of control | [2] 120 % of control and 110 % of control | [4] 87 % of control

CCCOC(=O)C(C(=O)OCCC)(C(=O)OCCC)C(=O)OCCC
inactive: [5] 96 % of control | [6] 107 % of control | [7] 93 % of control

N#Cc1cccnc1Cl
inactive: endpoint: median survival time, dose: 50.0 mg/kg/injection, schedule: Q04DX002 (ip), vehicle: saline with Tween-80 100 % of control | endpoint: median survival time, dose: 100.0 mg/kg/injection, schedule: Q04DX002 (ip), vehicle: saline with Tween-80 100 % of control | endpoint: median survival time, dose: 200.0 mg/kg/injection, schedule: Q04DX002 (ip), vehicle: saline with Tween-80 111 % of control

C=C(Cl)CNC(N)=S
inactive: [8] 99 % of control | endpoint: mean survival time, dose: 200.0 mg/kg/injection, schedule: Q04DX003 (ip), vehicle: saline with Tween-80 98 % of control

CCCCCCCCCSc1nc2ccccc2s1
inactive: [9] 87 % of control | [10] 97 % of control | endpoint: mean survival time, dose: 400.0 mg/kg/injection, schedule: Q04DX002 (ip), vehicle: saline with Tween-80 93 % of control

O=C(C#Cc1ccccc1)N1CCCCC1
inactive: endpoint: mean survival time, dose: 25.0 mg/kg/injection, schedule: Q04DX002 (ip), vehicle: saline with Tween-80 99 % of control | endpoint: mean survival time, dose: 50.0 mg/kg/injection, schedule: Q04DX002 (ip), vehicle: saline with Tween-80 99 % of control | [9] 101 % of control | [10] 92 % of control

NC(CCC(=O)OCc1ccccc1)C(=O)OCc1ccccc1 (centres undefined)
inactive: [11] 106 % of control | endpoint: mean survival time, dose: 100.0 mg/kg/injection, schedule: Q01DX009 (ip), vehicle: saline 93 % of control | endpoint: mean survival time, dose: 100.0 mg/kg/injection, schedule: Q04DX003 (ip), vehicle: saline 97 % of control | endpoint: mean survival time, dose: 200.0 mg/kg/injection, schedule: Q01DX009 (ip), vehicle: saline 87 % of control | endpoint: mean survival time, dose: 200.0 mg/kg/injection, schedule: Q04DX003 (ip), vehicle: saline 108 % of control

C1CNC(SCCOCCOCCSC2=NCCN2)=N1
inactive: endpoint: mean survival time, dose: 12.5 mg/kg/injection, schedule: Q01DX009 (ip), vehicle: saline 97 % of control | endpoint: mean survival time, dose: 25.0 mg/kg/injection, schedule: Q01DX009 (ip), vehicle: saline 97 % of control | [11] 100 % of control

COc1ccc(OC)c(/C=C/c2ccnc3ccccc23)c1
inactive: endpoint: median survival time, dose: 50.0 mg/kg/injection, schedule: Q01DX009 (ip), vehicle: saline with Tween-80 102 % of control | endpoint: median survival time, dose: 100.0 mg/kg/injection, schedule: Q01DX009 (ip), vehicle: saline with Tween-80 101 % of control | endpoint: median survival time, dose: 200.0 mg/kg/injection, schedule: Q01DX009 (ip), vehicle: saline with Tween-80 108 % of control | endpoint: median survival time, dose: 400.0 mg/kg/injection, schedule: Q01DX009 (ip), vehicle: saline with Tween-80 113 % of control

COC(=O)[C@]1(C)CCC[C@]2(C)c3cc(C(C)=O)c(C(C)C)cc3CC[C@@H]12
inactive: [2] 97 % of control | [3] 97 % of control | [4] 100 % of control

C(=C(\C[P+](c1ccccc1)(c1ccccc1)c1ccccc1)c1ccccc1)/c1ccccc1
inactive: endpoint: mean survival time, dose: 1.25 mg/kg/injection, schedule: Q01DX009 (ip), vehicle: saline with Tween-80 104 % of control | endpoint: mean survival time, dose: 2.5 mg/kg/injection, schedule: Q01DX009 (ip), vehicle: saline with Tween-80 102 % of control | endpoint: mean survival time, dose: 5.0 mg/kg/injection, schedule: Q01DX009 (ip), vehicle: saline with Tween-80 97 % of control

CN(C)C=NC1(c2ccccc2)CCCCC1
inactive: endpoint: mean survival time, dose: 25.0 mg/kg/injection, schedule: Q04DX003 (ip), vehicle: saline with Tween-80 97 % of control | endpoint: mean survival time, dose: 50.0 mg/kg/injection, schedule: Q04DX003 (ip), vehicle: saline with Tween-80 92 % of control | [8] 91 % of control and 97 % of control

COc1ccc(S(=O)(=O)NCCN(C)C)cc1NC(C)=O
inactive: [5] 90 % of control | [6] 93 % of control | [7] 100 % of control
